Test results reported in US6589755B1, “Assay for quantifying arthritic conditions” (Novartis AG, priority 1996, dated 2003).

System: LMW-COMP fragment
Test: LMW-COMP fragments in synovial fluid of treated arthritis patients
Assay type: in vivo, human
Conditions: strong anti-arthritic compound
Description: Twenty microliters of human synovial fluids were mixed 1:1 with SDS-PAGE loading buffer (NOVEX, San Diego, Calif.) containing 10% mercaptoethanol. The samples were boiled for 4 min. and […] applied per lane on a 14% or a 4-12% gradient SDS-PAGE Tris-Gly gel (Novex, Calif.). A separate set of these samples was also prepared for analysis under non-reducing conditions. Molecular weight markers were used to localize the molecular weight of unknowns. After electrophoresis, the samples were electrophoretically transferred onto a nitro-cellulose paper. The paper was treated with 2% bovine serum albumin (BSA) in 10 mM sodium phosphate, 0.15 M NaCl at […] (PBS) for 18 hours at 4° C.
The nitrocelluose paper was rinsed with PBS (10 mM sodium phosphate, 0.15 M NaCl at pH 7.2). […] The bound antibody was then detected using ECL or ECF substrate (Amersham Co.). The fragments were quantified using a Molecular Dynamics densitometer (Sunnyvale, Calif.). […]
A 96-well microtiter plate was coated with 0.1 ml/well of 50 ng/ml of antigen (synthetic peptide H741 without the N-terminal cysteine) in PBS for 48 to 72 h at 4° C. […] After 1 h at RT, the plate was washed 3-times with the ELISA wash buffer and the bound antibody detected by adding 100 μl/well of p-nitrophenyl phosphate substrate solution (Sigma, St. Louis, Mo.) and measuring optical density (OD) at 405 nm. […]

Structure (SMILES) | LMW-COMP fragment produced under treatment
CN(Cc1cnc2nc(N)nc(N)c2n1)c1ccc(C(=O)N[C@@H](CCC(=O)O)C(=O)O)cc1 [methotrexate] | less
CN1C(C(=O)Nc2ccccn2)=C(O)c2ccccc2S1(=O)=O [piroxicam] | less
